{
  "source": "patent US9994546B2",
  "about": "“Cyclopropylamines as LSD1 inhibitors” (Incyte Corporation, priority 2014, dated 2018)",
  "data": [
    {"target": "LSD-1 enzyme (Homo sapiens (Human), UniProt O60341)", "assay": "LANCE LSD1/KDM1A demethylase assay (LSD1 histone demethylase biochemical assay)", "conditions": "1 nM LSD-1 enzyme, 1 hour preincubation at 25° C., 0.4 μM biotin-labeled Histone H3 peptide substrate", "method": "LANCE LSD1/KDM1A demethylase assay—10 μL of 1 nM LSD-1 enzyme (ENZO BML-SE544-0050) in the assay buffer (50 mM Tris, pH 7.5, 0.01% Tween-20, 25 mM NaCl, 5 mM DTT) were preincubated for 1 hour at 25° C. with 0.8 μL compound/DMSO dotted in black 384 well polystyrene plates. […] After stopping the reactions plates were incubated for 30 minutes and read on a PHERAstar FS plate reader (BMG Labtech).", "units": {"IC50": "nM"}, "values": [
      {"smiles": "CN(C)C(=O)CC1(N2CCC(N[C@@H]3C[C@H]3c3ccccc3)CC2)CN(C(=O)N(C)C)C1", "note": "[Example 96, 3-[2-(dimethylamino)-2-oxoethyl]-N,N-dimethyl-3-(4-{[(1R,2S)-2-phenylcyclopropyl]amino}piperidin-1-yl)azetidine-1-carboxamide]", "IC50": "≤ 100"},
      {"smiles": "CNC(=O)CC1(N2CCC(N[C@@H]3C[C@H]3c3ccccc3)CC2)CN(C(=O)N(C)C)C1", "note": "[Example 97, N,N-dimethyl-3-[2-(methylamino)-2-oxoethyl]-3-(4-{[(1R,2S)-2-phenylcyclopropyl]amino}piperidin-1-yl)azetidine-1-carboxamide]", "IC50": "≤ 100"},
      {"smiles": "Cn1cc(N2CC(CC#N)(N3CCC(N[C@@H]4C[C@H]4c4ccccc4)CC3)C2)cn1", "note": "[Example 98, [1-(1-methyl-1H-pyrazol-4-yl)-3-(4-{[(1R,2S)-2-phenylcyclopropyl]amino}piperidin-1-yl)azetidin-3-yl]acetonitrile]", "IC50": "≤ 100"},
      {"smiles": "N#CCC1(N2CCC(N[C@@H]3C[C@H]3c3ccccc3)CC2)CN(C(=O)OC2CCOC2)C1", "note": "(stereo partly drawn) [Example 99, tetrahydrofuran-3-yl 3-(cyanomethyl)-3-(4-{[(1R,2S)-2-phenylcyclopropyl]amino}piperidin-1-yl)azetidine-1-carboxylate]", "IC50": "≤ 100"},
      {"smiles": "Cn1cc(S(=O)(=O)N2CC(CC#N)(N3CCC(N[C@@H]4C[C@H]4c4ccccc4)CC3)C2)cn1", "note": "[Example 100, [1-[(1-methyl-1H-pyrazol-4-yl)sulfonyl]-3-(4-{[(1R,2S)-2-phenylcyclopropyl]amino}piperidin-1-yl)azetidin-3-yl]acetonitrile]", "IC50": "≤ 100"},
      {"smiles": "CS(=O)(=O)N1CC(CC#N)(N2CCC(N[C@@H]3C[C@H]3c3ccc(F)cc3)CC2)C1", "note": "[Example 101, [3-(4-{[(1R,2S)-2-(4-fluorophenyl)cyclopropyl]amino}piperidin-1-yl)-1-(methylsulfonyl)azetidin-3-yl]acetonitrile]", "IC50": "≤ 100"},
      {"smiles": "N#CCC1(N2CCC(N[C@@H]3C[C@H]3c3ccc(F)cc3)CC2)CN(S(N)(=O)=O)C1", "note": "[Example 102, 3-(cyanomethyl)-3-(4-{[(1R,2S)-2-(4-fluorophenyl)cyclopropyl]amino}piperidin-1-yl)azetidine-1-sulfonamide]", "IC50": "≤ 100"},
      {"smiles": "O=C(O)CC1(N2CCC(CN[C@@H]3C[C@H]3c3ccccc3)CC2)CCC1", "note": "[Example 105, {1-[4-({[(1R,2S)-2-phenylcyclopropyl]amino}methyl)piperidin-1-yl]cyclobutyl}acetic acid]", "IC50": "≤ 100"},
      {"smiles": "N#CCC1(N2CCC(N[C@@H]3C[C@H]3c3ccccc3)CC2)CN(C2CC(O)C2)C1", "note": "(stereo partly drawn) [Example 106, [1-(3-hydroxycyclobutyl)-3-(4-{[(1R,2S)-2-phenylcyclopropyl]amino}piperidin-1-yl)azetidin-3-yl]acetonitrile]", "IC50": "≤ 100"},
      {"smiles": "N#CCC1(N2CCC(N[C@@H]3C[C@H]3c3ccccc3)CC2)CN(C(=O)C2CCCO2)C1", "note": "(stereo partly drawn) [Example 107, 2-(3-(4-(((1R,2S)-2-phenylcyclopropyl)amino)piperidin-1-yl)-1-(tetrahydrofuran-2-carbonyl)azetidin-3-yl)acetonitrile]", "IC50": "≤ 100"},
      {"smiles": "N#CCC1(N2CCC(N[C@@H]3C[C@H]3c3ccccc3)CC2)CN(C(=O)C2CCOC2)C1", "note": "(stereo partly drawn) [Example 108, [3-(4-{[(1R,2S)-2-phenylcyclopropyl]amino}piperidin-1-yl)-1-(tetrahydrofuran-3-ylcarbonyl)azetidin-3-yl]acetonitrile]", "IC50": "≤ 100"},
      {"smiles": "N#CCC1(N2CCC(N[C@@H]3C[C@H]3c3ccccc3)CC2)CN(C(=O)c2cncs2)C1", "note": "[Example 109, [3-(4-{[(1R,2S)-2-phenylcyclopropyl]amino}piperidin-1-yl)-1-(1,3-thiazol-5-ylcarbonyl)azetidin-3-yl]acetonitrile]", "IC50": "≤ 100"},
      {"smiles": "N#CCC1(N2CCC(N[C@@H]3C[C@H]3c3ccccc3)CC2)CN(C(=O)c2ccns2)C1", "note": "[Example 110, [1-(isothiazol-5-ylcarbonyl)-3-(4-{[(1R,2S)-2-phenylcyclopropyl]amino}piperidin-1-yl)azetidin-3-yl]acetonitrile]", "IC50": "≤ 100"}
    ]}
  ]
}
